The record followed here is patent US20070249670A1, “Glycogen Phosphorylase Inhibitor Compounds and Pharmaceutical Compositions Thereof” (SMITHKLINE BEECHAM CORPORATION, priority 2004, published 2007).

This test concerns the target T1, human liver glycogen phosphorylase a (HLGPa) (Homo sapiens, UniProt P06737).
T1 construct: creating a full-length cDNA fused at the 5′ end to codons for methionine-glycine-alanine-histidine; 6xHis tag (leader Met-Gly-Ala-His6-Gly-Gly) (N); made in house; host or cells: E. coli (bacterial expression plasmid pTXK1007LTev)
T1 sequence (P06737 2-847 limits assumed): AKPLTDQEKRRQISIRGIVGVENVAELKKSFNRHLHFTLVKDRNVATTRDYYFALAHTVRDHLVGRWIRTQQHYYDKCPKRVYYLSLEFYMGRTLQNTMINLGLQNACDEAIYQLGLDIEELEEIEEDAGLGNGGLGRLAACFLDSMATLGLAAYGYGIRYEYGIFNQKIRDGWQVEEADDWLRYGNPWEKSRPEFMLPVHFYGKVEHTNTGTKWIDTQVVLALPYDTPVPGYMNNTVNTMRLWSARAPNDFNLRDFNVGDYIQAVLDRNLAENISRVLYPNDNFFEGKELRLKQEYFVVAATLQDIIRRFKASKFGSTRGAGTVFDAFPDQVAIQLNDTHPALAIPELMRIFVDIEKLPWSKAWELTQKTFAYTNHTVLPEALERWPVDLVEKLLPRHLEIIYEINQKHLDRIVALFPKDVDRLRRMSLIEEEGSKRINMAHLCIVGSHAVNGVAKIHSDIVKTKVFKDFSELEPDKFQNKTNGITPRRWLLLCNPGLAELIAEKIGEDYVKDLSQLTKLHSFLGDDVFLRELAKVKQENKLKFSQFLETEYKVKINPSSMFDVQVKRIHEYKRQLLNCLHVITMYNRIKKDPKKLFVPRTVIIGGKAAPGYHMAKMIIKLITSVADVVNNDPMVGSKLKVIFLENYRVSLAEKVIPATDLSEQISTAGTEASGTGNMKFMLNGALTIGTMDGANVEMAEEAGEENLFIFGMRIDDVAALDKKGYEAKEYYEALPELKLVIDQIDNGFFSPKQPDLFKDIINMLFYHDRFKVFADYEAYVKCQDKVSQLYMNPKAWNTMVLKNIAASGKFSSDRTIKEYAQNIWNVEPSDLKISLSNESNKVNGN
Kind of test: Human liver glycogen phosphorylase a enzymatic activity assay (coupled, fluorescent resorufin readout, with and without 10 mM glucose). The test is classed as biochemical. As to conditions: human liver glycogen phosphorylase a enzymatic activity assay.

Broadly, the IC50 is the point on the concentration scale where inhibition reaches its midpoint. A high value points to a need for much substance. Turning to `Cc1cccc(C)c1NC(=O)Nc1sc2c(c1C(=O)N[C@@H](CC(=O)O)C(=O)O)CCCC2` [Example 132, N-{[2-({[(2,6-dimethylphenyl)amino]carbonyl}amino)-4,5,6,7-tetrahydro-1-benzothien-3-yl]carbonyl}-L-aspartic acid], it took 5.25 µM to reach half-maximal inhibition (IC50).

As to `Cc1cc(C)c(NC(=O)Nc2sc3c(c2C(=O)N[C@@H](CC(=O)O)C(=O)O)CCCC3)c(C)c1` [Example 133, N-[(2-{[(mesitylamino)carbonyl]amino}-4,5,6,7-tetrahydro-1-benzothien-3-yl)carbonyl]-L-aspartic acid], it took 2.38 µM to reach half-maximal inhibition (IC50).

For `Cc1cccc(Cl)c1NC(=O)Nc1sc2c(c1C(=O)N[C@@H](CC(=O)O)C(=O)O)CCCC2` [Example 134, N-{[2-({[(2-chloro-6-methylphenyl)amino]carbonyl}amino)-4,5,6,7-tetrahydro-1-benzothien-3-yl]carbonyl}-L-aspartic acid], the IC50 was found to be 3.66 µM.

In the case of `Cc1cccc(C(C)C)c1NC(=O)Nc1sc2c(c1C(=O)N[C@@H](CC(=O)O)C(=O)O)CCCC2` [Example 135, N-{[2-({[(2-isopropyl-6-methylphenyl)amino]carbonyl}amino)-4,5,6,7-tetrahydro-1-benzothien-3-yl]carbonyl}-L-aspartic acid], the concentration for half-maximal inhibition (IC50) was 17.9 µM.

Consider `CCc1cccc(CC)c1NC(=O)Nc1sc2c(c1C(=O)N[C@@H](CC(=O)O)C(=O)O)CCCC2` [Example 136, N-{[2-({[(2,6-diethylphenyl)amino]carbonyl}amino)-4,5,6,7-tetrahydro-1-benzothien-3-yl]carbonyl}-L-aspartic acid], for which half-maximal inhibition (IC50) required 4.58 µM.

`O=C(O)C[C@H](NC(=O)c1c(NC(=O)Nc2c(Cl)cccc2Cl)sc2c1CCCC2)C(=O)O` [Example 137, N-{[2-({[(2,6-dichlorophenyl)amino]carbonyl}amino)-4,5,6,7-tetrahydro-1-benzothien-3-yl]carbonyl}-L-aspartic acid] yielded an IC50 of 4.15 µM.

As for `Cc1cccc(C)c1NC(=O)Nc1sc2c(c1C(=O)N[C@H](C(=O)O)C1CCCCC1)CCCC2` [Example 138, (2S)-cyclohexyl({[2-({[(2,6-dimethylphenyl)amino]carbonyl}amino)-4,5,6,7-tetrahydro-1-benzothien-3-yl]carbonyl}amino)acetic acid], the half-inhibitory concentration (IC50) is 5.56 µM.

Take `Cc1cccc(Cl)c1NC(=O)Nc1sc2c(c1C(=O)N[C@H](C(=O)O)C1CCCCC1)CCCC2` [Example 139, (2S)-({[2-({[(2-chloro-6-methylphenyl)amino]carbonyl}amino)-4,5,6,7-tetrahydro-1-benzothien-3-yl]carbonyl}amino)(cyclohexyl)acetic acid]: it took 3.26 µM to reach half-maximal inhibition (IC50).

`O=C(Nc1sc2c(c1C(=O)N[C@H](C(=O)O)C1CCCCC1)CCCC2)Nc1c(Cl)cccc1Cl` [Example 140, (2S)-cyclohexyl({[2-({[(2,6-dichlorophenyl)amino]carbonyl}amino)-4,5,6,7-tetrahydro-1-benzothien-3-yl]carbonyl}amino)acetic acid] came in with an IC50 of 5.5 µM.

Take `Cc1ccccc1NC(=O)Nc1sc2ccccc2c1C(=O)N[C@H](C(=O)O)C1CCCCC1` [Example 141, (2S)-cyclohexyl({[2-({[(2-methylphenyl)amino]carbonyl}amino)-1-benzothien-3-yl]carbonyl}amino)acetic acid]: the midpoint of inhibition, the IC50, lay at 8.71 µM. Against the preceding molecule, the IC50 is about 1.6-fold higher.

For the molecule `Cc1cccc(Cl)c1NC(=O)Nc1sc2ccccc2c1C(=O)N[C@H](C(=O)O)C1CCCCC1` [Example 142, (2S)-({[2-({[(2-chloro-6-methylphenyl)amino]carbonyl}amino)-1-benzothien-3-yl]carbonyl}amino)(cyclohexyl)acetic acid], the IC50 is 1.51 µM.

In the case of `Cc1ccccc1NC(=O)Nc1cc2ccccc2cc1C(=O)N[C@H](C(=O)O)C1CCCCC1` [Example 143, (2S)-cyclohexyl{[3-({[(2-methylphenyl)amino]carbonyl}amino)-2-naphthoyl]amino}acetic acid], 30.3 µM corresponded to half-maximal inhibition (IC50). Compared with the last molecule, the IC50 is about 20-fold higher.

`Cc1ccccc1NC(=O)Nc1cc2ccccc2cc1C(=O)N[C@@H](CC1CCCCC1)C(=O)O` [Example 144, 3-cyclohexyl-N-{[3-({[(2-methylphenyl)amino]carbonyl}amino)-2-naphthalenyl]carbonyl}-L-alanine] registered an IC50 of 16.8 µM.

In turn, `Cc1cccc(C)c1NC(=O)Nc1cc2ccccc2cc1C(=O)N[C@@H](CC1CCCCC1)C(=O)O` [Example 145, 3-cyclohexyl-N-{[3-({[(2,6-dimethylphenyl)amino]carbonyl}amino)-2-naphthalenyl]carbonyl}-L-alanine] returned an IC50 of 0.59 µM.

With `O=C(Nc1cc2ccccc2cc1C(=O)N[C@@H](CC1CCCCC1)C(=O)O)Nc1c(Cl)cccc1Cl` [Example 146, 3-cyclohexyl-N-{[3-({[(2,6-dichlorophenyl)amino]carbonyl}amino)-2-naphthalenyl]carbonyl}-L-alanine], 0.54 µM corresponded to half-maximal inhibition (IC50).

On to `Cc1noc(C)c1NC(=O)Nc1cc2ccccc2cc1C(=O)N[C@@H](CC(=O)O)C(=O)O` [Example 147, N-{[3-({[(3,5-dimethyl-4-isoxazolyl)amino]carbonyl}amino)-2-naphthalenyl]carbonyl}-L-aspartic acid], for which half-maximal inhibition (IC50) required 29.1 µM.

Molecule `O=C(O)C[C@H](NC(=O)c1cc2ccccc2cc1NC(=O)Nc1c(Cl)cccc1Cl)C(=O)O` [Example 148, N-{[3-({[(2,6-dichlorophenyl)amino]carbonyl}amino)-2-naphthalenyl]carbonyl}-L-aspartic acid] had an IC50 of 0.23 µM.

The molecule `O=C(O)C[C@H](NC(=O)c1cc2ccccc2cc1NC(=O)Nc1c(F)cccc1F)C(=O)O` [Example 149, N-{[3-({[(2,6-difluorophenyl)amino]carbonyl}amino)-2-naphthalenyl]carbonyl}-L-aspartic acid] returned an IC50 of 5.02 µM. Compared with the last molecule, the IC50 is about 22-fold higher.

`O=C(O)C[C@H](NC(=O)c1cc2ccccc2cc1NC(=O)Nc1ccccc1Cl)C(=O)O` [Example 151, N-{[3-({[(2-chlorophenyl)amino]carbonyl}amino)-2-naphthalenyl]carbonyl}-L-aspartic acid] had an IC50 of 1.55 µM. Against the preceding molecule, the IC50 is about 3.2-fold lower.

Regarding `O=C(Nc1cc2ccccc2cc1C(=O)N[C@H](C(=O)O)C1CCCCC1)Nc1c(F)cccc1F` [Example 153, (2S)-cyclohexyl({[3-({[(2,6-difluorophenyl)amino]carbonyl}amino)-2-naphthalenyl]carbonyl}amino)ethanoic acid], the IC50 worked out at 4.85 µM.

`O=C(Cc1c(Cl)cccc1Cl)Nc1cc2ccccc2cc1C(=O)N[C@H](C(=O)O)C1CCCCC1` [Example 155, (2S)-cyclohexyl{[(3-{[(2,6-dichlorophenyl)acetyl]amino}-2-naphthalenyl)carbonyl]amino}ethanoic acid] registered an IC50 of 6.8 µM.

The molecule `O=C(Nc1cc(Cl)ccc1C(=O)N[C@H](C(=O)O)C1CCCCC1)Nc1c(Cl)cccc1Cl` [Example 156, (2S)({[4chloro2({[(2,6dichlorophenyl)amino]carbonyl}amino)phenyl]carbonyl}amino)(cyclohexyl)ethanoic acid] gave a half-inhibitory concentration (IC50) of 0.082 µM.

The molecule `Cc1cccc(C)c1NC(=O)Nc1cc(Cl)ccc1C(=O)N[C@H](C(=O)O)C1CCCCC1` [Example 157, (2S)-({[4-chloro-2-({[(2,6-dimethylphenyl)amino]carbonyl}amino)phenyl]carbonyl}amino)(cyclohexyl)ethanoic acid] returned an IC50 of 0.242 µM.

The molecule `CCc1cccc(C)c1NC(=O)Nc1cc2ccccc2cc1C(=O)N[C@H](C(=O)O)C1CCCCC1` [Example 159, (2S)-cyclohexyl{[3-({[(2-ethyl-6-methylphenyl)amino]carbonyl}amino)-2-naphthoyl]amino}ethanoic acid] displayed an IC50 of 0.058 µM.

`O=C(Nc1cc2ccccc2cc1C(=O)N[C@H](C(=O)O)C1CCCCC1)Nc1c(Cl)cccc1C(F)(F)F` [Example 160, (2S)-({3-[({[2-chloro-6-(trifluoromethyl)phenyl]amino}carbonyl)amino]-2-naphthoyl}amino)(cyclohexyl)ethanoic acid] registered an IC50 of 0.068 µM. This IC50 and that of the molecule before are within 1.5-fold of each other.

`O=C(Cc1c(Cl)cc(C(F)(F)F)cc1Cl)Nc1cc2ccccc2cc1C(=O)N[C@H](C(=O)O)C1CCCCC1` [Example 161, (2S)-cyclohexyl{[3-({[2,6-dichloro-4-(trifluoromethyl)phenyl]acetyl}amino)-2-naphthoyl]amino}ethanoic acid] came in with an IC50 of 0.11 µM.

`O=C(Cc1c(Cl)cc(Cl)cc1Cl)Nc1cc2ccccc2cc1C(=O)N[C@H](C(=O)O)C1CCCCC1` [Example 162, (2S)-cyclohexyl[(3-{[(2,4,6-trichlorophenyl)acetyl]amino}-2-naphthoyl)amino]ethanoic acid] had an IC50 of 0.046 µM.

For the molecule `Cc1cccc(C)c1NC(=O)Nc1cc2ccccc2cc1C(=O)NCCC(=O)O` [Example 163, N-[3-({[(2,6-dimethylphenyl)amino]carbonyl}amino)-2-naphthoyl]-beta-alanine], the midpoint of inhibition, the IC50, lay at 0.509 µM.
